Laboratory results published in a compilation of properties of binary mixtures (doi:10.1080/00986445.2015.1114477).

Test: xn = mol fraction of the nth substance listed
Conditions: 100 kPa

## CN1CCCC1=O + CCCCCCCCn1cc[n+](C)c1.[Cl-]
288.15 K, x1 = 1
  viscosity: 1.989 mPa·s
298.15 K, x1 = 1
  viscosity: 1.679 mPa·s
303.15 K, x1 = 1
  viscosity: 1.556 mPa·s
308.15 K, x1 = 1
  viscosity: 1.441 mPa·s
313.15 K, x1 = 1
  viscosity: 1.323 mPa·s
323.15 K, x1 = 1
  viscosity: 1.148 mPa·s
328.15 K, x1 = 1
  viscosity: 1.065 mPa·s
333.15 K, x1 = 1
  viscosity: 1.029 mPa·s

## CN1CCN(C)C1=O + CCCCCCCCn1cc[n+](C)c1.[Cl-]
288.15 K, x2 = 0
  viscosity: 2.368 mPa·s
288.15 K, x2 = 0.105
  viscosity: 7.99 mPa·s
288.15 K, x2 = 0.2056
  viscosity: 29.6 mPa·s
288.15 K, x2 = 0.3991
  viscosity: 217 mPa·s
288.15 K, x2 = 0.6016
  viscosity: 1500 mPa·s
293.15 K, x2 = 0
  viscosity: 2.139 mPa·s
293.15 K, x2 = 0.105
  viscosity: 6.88 mPa·s
293.15 K, x2 = 0.2056
  viscosity: 24 mPa·s
293.15 K, x2 = 0.3018
  viscosity: 67.9 mPa·s
293.15 K, x2 = 0.4964
  viscosity: 420 mPa·s
293.15 K, x2 = 0.6016
  viscosity: 990 mPa·s
293.15 K, x2 = 0.7007
  viscosity: 1973 mPa·s
298.15 K, x2 = 0
  viscosity: 1.945 mPa·s
298.15 K, x2 = 0.105
  viscosity: 5.98 mPa·s
298.15 K, x2 = 0.2056
  viscosity: 19.66 mPa·s
298.15 K, x2 = 0.3018
  viscosity: 53.2 mPa·s
298.15 K, x2 = 0.3991
  viscosity: 118.5 mPa·s
298.15 K, x2 = 0.4964
  viscosity: 295 mPa·s
298.15 K, x2 = 0.6016
  viscosity: 669 mPa·s
298.15 K, x2 = 0.7007
  viscosity: 1290 mPa·s
298.15 K, x2 = 0.7994
  viscosity: 2473 mPa·s
303.15 K, x2 = 0
  viscosity: 1.76 mPa·s
303.15 K, x2 = 0.105
  viscosity: 5.25 mPa·s
303.15 K, x2 = 0.3018
  viscosity: 42.4 mPa·s
303.15 K, x2 = 0.3991
  viscosity: 90.5 mPa·s
303.15 K, x2 = 0.6016
  viscosity: 467 mPa·s
303.15 K, x2 = 0.7007
  viscosity: 874 mPa·s
303.15 K, x2 = 0.7994
  viscosity: 1632 mPa·s
308.15 K, x2 = 0
  viscosity: 1.616 mPa·s
308.15 K, x2 = 0.105
  viscosity: 4.64 mPa·s
308.15 K, x2 = 0.2056
  viscosity: 14 mPa·s
308.15 K, x2 = 0.3018
  viscosity: 34.3 mPa·s
308.15 K, x2 = 0.3991
  viscosity: 70.8 mPa·s
308.15 K, x2 = 0.4964
  viscosity: 170.9 mPa·s
308.15 K, x2 = 0.6016
  viscosity: 335 mPa·s
308.15 K, x2 = 0.7007
  viscosity: 608 mPa·s
313.15 K, x2 = 0
  viscosity: 1.491 mPa·s
313.15 K, x2 = 0.105
  viscosity: 4.14 mPa·s
313.15 K, x2 = 0.2056
  viscosity: 11.99 mPa·s
313.15 K, x2 = 0.3018
  viscosity: 28.2 mPa·s
313.15 K, x2 = 0.3991
  viscosity: 56.4 mPa·s
313.15 K, x2 = 0.6016
  viscosity: 245 mPa·s
313.15 K, x2 = 0.7007
  viscosity: 431 mPa·s
318.15 K, x2 = 0
  viscosity: 1.381 mPa·s
318.15 K, x2 = 0.105
  viscosity: 3.72 mPa·s
318.15 K, x2 = 0.2056
  viscosity: 10.25 mPa·s
318.15 K, x2 = 0.3018
  viscosity: 23.45 mPa·s
318.15 K, x2 = 0.3991
  viscosity: 45.7 mPa·s
318.15 K, x2 = 0.6016
  viscosity: 196 mPa·s
318.15 K, x2 = 0.7007
  viscosity: 315 mPa·s
318.15 K, x2 = 0.7994
  viscosity: 551 mPa·s
323.15 K, x2 = 0
  viscosity: 1.28 mPa·s
323.15 K, x2 = 0.105
  viscosity: 3.36 mPa·s
323.15 K, x2 = 0.2056
  viscosity: 8.93 mPa·s
323.15 K, x2 = 0.3018
  viscosity: 19.75 mPa·s
323.15 K, x2 = 0.3991
  viscosity: 37.5 mPa·s
323.15 K, x2 = 0.6016
  viscosity: 149.3 mPa·s
323.15 K, x2 = 0.7007
  viscosity: 251 mPa·s
323.15 K, x2 = 0.7994
  viscosity: 404 mPa·s
328.15 K, x2 = 0
  viscosity: 1.195 mPa·s
328.15 K, x2 = 0.2056
  viscosity: 7.84 mPa·s
328.15 K, x2 = 0.3018
  viscosity: 16.69 mPa·s
328.15 K, x2 = 0.4964
  viscosity: 63.2 mPa·s
328.15 K, x2 = 0.6016
  viscosity: 116 mPa·s
328.15 K, x2 = 0.7007
  viscosity: 191 mPa·s
328.15 K, x2 = 0.7994
  viscosity: 301 mPa·s
333.15 K, x2 = 0
  viscosity: 1.117 mPa·s
333.15 K, x2 = 0.105
  viscosity: 2.78 mPa·s
333.15 K, x2 = 0.2056
  viscosity: 6.92 mPa·s
333.15 K, x2 = 0.3018
  viscosity: 14.54 mPa·s
333.15 K, x2 = 0.3991
  viscosity: 26.3 mPa·s
333.15 K, x2 = 0.4964
  viscosity: 51.6 mPa·s
333.15 K, x2 = 0.6016
  viscosity: 91.4 mPa·s
333.15 K, x2 = 0.7994
  viscosity: 229 mPa·s

## CN1CCCC1=O + CCCCCC[n+]1ccn(C)c1.[Cl-]
288.15 K, x1 = 1
  viscosity: 1.989 mPa·s
293.15 K, x1 = 1
  viscosity: 1.853 mPa·s
298.15 K, x1 = 1
  viscosity: 1.679 mPa·s
303.15 K, x1 = 1
  viscosity: 1.556 mPa·s
308.15 K, x1 = 1
  viscosity: 1.441 mPa·s
313.15 K, x1 = 1
  viscosity: 1.323 mPa·s
318.15 K, x1 = 1
  viscosity: 1.259 mPa·s
323.15 K, x1 = 1
  viscosity: 1.148 mPa·s
328.15 K, x1 = 1
  viscosity: 1.065 mPa·s
333.15 K, x1 = 1
  viscosity: 1.029 mPa·s

## CN1CCN(C)C1=O + CCCCCC[n+]1ccn(C)c1.[Cl-]
288.15 K, x2 = 0.1999
  viscosity: 18.72 mPa·s
288.15 K, x2 = 0.2985
  viscosity: 49.9 mPa·s
288.15 K, x2 = 0.3856
  viscosity: 124.2 mPa·s
288.15 K, x2 = 0.4985
  viscosity: 301 mPa·s
288.15 K, x2 = 0.6069
  viscosity: 707 mPa·s
288.15 K, x2 = 0.6969
  viscosity: 1575 mPa·s
293.15 K, x2 = 0
  viscosity: 2.139 mPa·s
293.15 K, x2 = 0.1007
  viscosity: 5.49 mPa·s
293.15 K, x2 = 0.1999
  viscosity: 15.59 mPa·s
293.15 K, x2 = 0.2985
  viscosity: 39.2 mPa·s
293.15 K, x2 = 0.3856
  viscosity: 92.5 mPa·s
293.15 K, x2 = 0.4985
  viscosity: 214 mPa·s
293.15 K, x2 = 0.6069
  viscosity: 477 mPa·s
293.15 K, x2 = 0.6969
  viscosity: 1029 mPa·s
293.15 K, x2 = 0.7981
  viscosity: 2308 mPa·s
298.15 K, x2 = 0
  viscosity: 1.945 mPa·s
298.15 K, x2 = 0.1007
  viscosity: 4.82 mPa·s
298.15 K, x2 = 0.1999
  viscosity: 13.12 mPa·s
298.15 K, x2 = 0.2985
  viscosity: 31.2 mPa·s
298.15 K, x2 = 0.3856
  viscosity: 71.6 mPa·s
298.15 K, x2 = 0.4985
  viscosity: 155.5 mPa·s
298.15 K, x2 = 0.6069
  viscosity: 332 mPa·s
298.15 K, x2 = 0.6969
  viscosity: 694 mPa·s
298.15 K, x2 = 0.7981
  viscosity: 1473 mPa·s
303.15 K, x2 = 0
  viscosity: 1.76 mPa·s
303.15 K, x2 = 0.1007
  viscosity: 4.26 mPa·s
303.15 K, x2 = 0.2985
  viscosity: 25.4 mPa·s
303.15 K, x2 = 0.3856
  viscosity: 55.9 mPa·s
303.15 K, x2 = 0.4985
  viscosity: 116.4 mPa·s
303.15 K, x2 = 0.6069
  viscosity: 241 mPa·s
303.15 K, x2 = 0.6969
  viscosity: 478 mPa·s
303.15 K, x2 = 0.7981
  viscosity: 978 mPa·s
308.15 K, x2 = 0.1007
  viscosity: 3.8 mPa·s
308.15 K, x2 = 0.2985
  viscosity: 20.72 mPa·s
308.15 K, x2 = 0.4985
  viscosity: 88.9 mPa·s
308.15 K, x2 = 0.6069
  viscosity: 185 mPa·s
308.15 K, x2 = 0.6969
  viscosity: 338 mPa·s
308.15 K, x2 = 0.7981
  viscosity: 666 mPa·s
313.15 K, x2 = 0
  viscosity: 1.491 mPa·s
313.15 K, x2 = 0.1007
  viscosity: 3.41 mPa·s
313.15 K, x2 = 0.1999
  viscosity: 7.42 mPa·s
313.15 K, x2 = 0.2985
  viscosity: 17.34 mPa·s
313.15 K, x2 = 0.3856
  viscosity: 35.7 mPa·s
313.15 K, x2 = 0.4985
  viscosity: 69.2 mPa·s
313.15 K, x2 = 0.6069
  viscosity: 138.5 mPa·s
313.15 K, x2 = 0.6969
  viscosity: 246 mPa·s
313.15 K, x2 = 0.7981
  viscosity: 468 mPa·s
318.15 K, x2 = 0
  viscosity: 1.381 mPa·s
318.15 K, x2 = 0.1007
  viscosity: 3.08 mPa·s
318.15 K, x2 = 0.1999
  viscosity: 6.47 mPa·s
318.15 K, x2 = 0.2985
  viscosity: 14.87 mPa·s
318.15 K, x2 = 0.3856
  viscosity: 29.2 mPa·s
318.15 K, x2 = 0.4985
  viscosity: 54.9 mPa·s
318.15 K, x2 = 0.6069
  viscosity: 106.2 mPa·s
318.15 K, x2 = 0.7981
  viscosity: 335 mPa·s
323.15 K, x2 = 0
  viscosity: 1.28 mPa·s
323.15 K, x2 = 0.1999
  viscosity: 5.7 mPa·s
323.15 K, x2 = 0.3856
  viscosity: 24.3 mPa·s
323.15 K, x2 = 0.6069
  viscosity: 82.7 mPa·s
323.15 K, x2 = 0.6969
  viscosity: 137.9 mPa·s
323.15 K, x2 = 0.7981
  viscosity: 247 mPa·s
328.15 K, x2 = 0.1007
  viscosity: 2.55 mPa·s
328.15 K, x2 = 0.1999
  viscosity: 5.07 mPa·s
328.15 K, x2 = 0.2985
  viscosity: 11.09 mPa·s
328.15 K, x2 = 0.3856
  viscosity: 20.29 mPa·s
328.15 K, x2 = 0.4985
  viscosity: 37.1 mPa·s
328.15 K, x2 = 0.6069
  viscosity: 64.8 mPa·s
328.15 K, x2 = 0.6969
  viscosity: 106.7 mPa·s
328.15 K, x2 = 0.7981
  viscosity: 184 mPa·s
333.15 K, x2 = 0
  viscosity: 1.117 mPa·s
333.15 K, x2 = 0.1007
  viscosity: 2.337 mPa·s
333.15 K, x2 = 0.1999
  viscosity: 4.54 mPa·s
333.15 K, x2 = 0.3856
  viscosity: 17.2 mPa·s
333.15 K, x2 = 0.4985
  viscosity: 29.9 mPa·s
333.15 K, x2 = 0.6069
  viscosity: 52.5 mPa·s
333.15 K, x2 = 0.6969
  viscosity: 83.8 mPa·s
333.15 K, x2 = 0.7981
  viscosity: 141.2 mPa·s
